From ChEMBL document CHEMBL2203152, “Systematic in vivo screening of a series of 1-propyl-4-arylpiperidines against dopaminergic and serotonergic properties in rat brain: a scaffold-jumping approach” (J Med Chem, 2012)
The source made the active and inactive calls. The calls are words filed in the database; no cut-off is given here.

What was measured:
Rattus norvegicus [1] = experiment: Decrease in 5-HIAA level in Sprague-Dawley rat striatum at 5.8 umol/kg, sc by HPLC analysis relative to saline-treated control; type: functional; set-up: scale not given: the % may be the effect or the level left
Rattus norvegicus [2] = experiment: Increase in DOPAC level in Sprague-Dawley rat striatum at 5.8 umol/kg, sc by HPLC analysis relative to saline-treated control; type: functional
Rattus norvegicus [3] = experiment: Reduction in spontaneous locomotor activity in Sprague-Dawley rat at 5.8 umol/kg, sc measured after 15 to 60 mins relative to saline-treated control; type: functional; set-up: scale not given: the % may be the effect or the level left
Rattus norvegicus [4] = experiment: Increase in DOPAC level in sc dosed Sprague-Dawley rat striatum by HPLC analysis; type: functional
Rattus norvegicus [5] = experiment: Decrease in 5-HIAA level in Sprague-Dawley rat striatum at 25 umol/kg, sc by HPLC analysis relative to saline-treated control; type: functional; set-up: scale not given: the % may be the effect or the level left
Rattus norvegicus [6] = experiment: Increase in DOPAC level in Sprague-Dawley rat striatum at 25 umol/kg, sc by HPLC analysis relative to saline-treated control; type: functional
Rattus norvegicus [7] = experiment: Reduction in spontaneous locomotor activity in Sprague-Dawley rat at 25 umol/kg, sc measured after 15 to 60 mins relative to saline-treated control; type: functional; set-up: scale not given: the % may be the effect or the level left
Rattus norvegicus [8] = experiment: Decrease in 5-HIAA level in Sprague-Dawley rat striatum at 6.4 umol/kg, sc by HPLC analysis relative to saline-treated control; type: functional; set-up: scale not given: the % may be the effect or the level left
Rattus norvegicus [9] = experiment: Increase in DOPAC level in Sprague-Dawley rat striatum at 6.4 umol/kg, sc by HPLC analysis relative to saline-treated control; type: functional
Rattus norvegicus [10] = experiment: Reduction in spontaneous locomotor activity in Sprague-Dawley rat at 6.4 umol/kg, sc measured after 15 to 60 mins relative to saline-treated control; type: functional; set-up: scale not given: the % may be the effect or the level left
[11] = target: 5-hydroxytryptamine receptor 2A (Homo sapiens, UniProt P28223); experiment: Displacement of [3H]ketanserin from human 5-HT2A by CEREP assay; settings: read-out: Ki(app)
[12] = target: T1, 5-hydroxytryptamine receptor 1A (Homo sapiens, UniProt P08908); experiment: Displacement of [3H]8- OH-DPAT from human 5-HT1A by CEREP assay; settings: read-out: Ki(app)
T1 sequence (P08908 whole entry): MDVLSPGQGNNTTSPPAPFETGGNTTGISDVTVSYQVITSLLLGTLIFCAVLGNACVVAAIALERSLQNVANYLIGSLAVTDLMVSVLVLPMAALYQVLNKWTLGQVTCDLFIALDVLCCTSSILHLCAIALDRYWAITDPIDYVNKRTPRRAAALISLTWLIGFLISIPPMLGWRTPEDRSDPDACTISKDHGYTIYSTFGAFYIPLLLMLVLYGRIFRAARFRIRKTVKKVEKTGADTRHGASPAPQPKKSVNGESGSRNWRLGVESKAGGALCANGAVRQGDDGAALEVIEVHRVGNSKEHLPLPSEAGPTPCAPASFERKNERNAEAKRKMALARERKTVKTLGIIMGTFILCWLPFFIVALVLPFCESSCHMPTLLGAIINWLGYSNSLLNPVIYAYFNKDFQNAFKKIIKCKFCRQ

Rattus norvegicus [13] = experiment: Reduction in spontaneous locomotor activity in Sprague-Dawley rat at 33 umol/kg, sc measured after 15 to 60 mins relative to saline-treated control; type: functional; set-up: scale not given: the % may be the effect or the level left
Rattus norvegicus [14] = experiment: Decrease in 5-HIAA level in Sprague-Dawley rat striatum at 33 umol/kg, sc by HPLC analysis relative to saline-treated control; type: functional; set-up: scale not given: the % may be the effect or the level left
Rattus norvegicus [15] = experiment: Increase in DOPAC level in Sprague-Dawley rat striatum at 33 umol/kg, sc by HPLC analysis relative to saline-treated control; type: functional
[16] = target: T2, Amine oxidase [flavin-containing] A (Rattus norvegicus, UniProt P21396); experiment: Displacement of [3H]Ro 41-1049 from MAO-A in rat cerebral cortex by competition binding assay; type: tissue-based
T2 sequence (P21396 whole entry): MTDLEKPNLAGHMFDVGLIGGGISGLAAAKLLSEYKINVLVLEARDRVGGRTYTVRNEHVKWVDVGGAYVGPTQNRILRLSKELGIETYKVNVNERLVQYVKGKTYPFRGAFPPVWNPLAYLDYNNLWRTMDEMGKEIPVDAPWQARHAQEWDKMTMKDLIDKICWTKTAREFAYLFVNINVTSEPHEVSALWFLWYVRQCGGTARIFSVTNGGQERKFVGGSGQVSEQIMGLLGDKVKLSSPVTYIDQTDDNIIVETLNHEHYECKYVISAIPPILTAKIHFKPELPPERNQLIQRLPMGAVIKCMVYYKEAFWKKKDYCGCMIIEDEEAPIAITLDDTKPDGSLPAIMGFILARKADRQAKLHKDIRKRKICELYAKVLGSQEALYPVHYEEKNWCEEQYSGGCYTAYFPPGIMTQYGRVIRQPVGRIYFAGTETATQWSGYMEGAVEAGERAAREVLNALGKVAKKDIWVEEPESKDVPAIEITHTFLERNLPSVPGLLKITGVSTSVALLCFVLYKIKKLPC

Homo sapiens = organism: Homo sapiens; experiment: Selectivity ratio of Ki(app) for human low affinity Dopamine D2S receptor to Ki(app) for human high affinity Dopamine D2S receptor
[17] = target: Sodium-dependent serotonin transporter (Homo sapiens, UniProt P31645); experiment: Displacement of [3H]imipramine from human SERT expressed in CHO cells by competition binding assay; type: cell-based; settings: read-out: Ki(app)
D(2) dopamine receptor [18] = target: T3, D(2) dopamine receptor (Homo sapiens, UniProt P14416); experiment: Displacement of [3H]7-OH-DPAT from human high affinity Dopamine D2S receptor by competition binding assay
D(2) dopamine receptor [19] = target: T3, D(2) dopamine receptor; experiment: Displacement of [3H]methylspiperone from human low affinity Dopamine D2S receptor by competition binding assay
Rattus norvegicus [20] = experiment: Inhibition of MK-801-induced hyperlocomotion in sc dosed Sprague-Dawley rat sc measured after 15 to 60 mins relative to saline-treated control; type: functional
Rattus norvegicus [21] = experiment: Inhibition of d-amphetamine-induced hyperlocomotion in sc dosed Sprague-Dawley rat sc measured after 15 to 60 mins relative to saline-treated control; type: functional
D(3) dopamine receptor = D(3) dopamine receptor (Homo sapiens, UniProt P35462); experiment: Displacement of [3H]7-OH-DPAT from human dopamine D3 receptor by CEREP assay; settings: read-out: Ki(app)
[22] = target: Sodium-dependent dopamine transporter (Homo sapiens) (UniProt Q01959); experiment: Displacement of [3H]BTCP from human DAT at 1 uM by CEREP assay
[23] = target: T4, D(4) dopamine receptor (Homo sapiens) (UniProt P21917); experiment: Displacement of [3H]methylspiperone from human dopamine D4 receptor at 1 uM by CEREP assay
T4 sequence (whole entry): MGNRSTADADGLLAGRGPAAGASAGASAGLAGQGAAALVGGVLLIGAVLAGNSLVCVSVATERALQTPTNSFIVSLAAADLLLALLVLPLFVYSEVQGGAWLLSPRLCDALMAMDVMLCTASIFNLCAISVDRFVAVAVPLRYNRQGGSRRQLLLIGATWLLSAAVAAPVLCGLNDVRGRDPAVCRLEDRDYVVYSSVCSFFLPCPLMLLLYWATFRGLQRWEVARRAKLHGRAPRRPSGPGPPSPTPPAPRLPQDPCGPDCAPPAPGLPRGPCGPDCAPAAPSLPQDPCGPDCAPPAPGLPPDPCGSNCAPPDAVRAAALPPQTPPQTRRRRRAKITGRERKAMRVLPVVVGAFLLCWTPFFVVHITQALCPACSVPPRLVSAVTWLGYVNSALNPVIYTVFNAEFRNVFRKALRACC

[24] = target: 5-hydroxytryptamine receptor 6 (Homo sapiens, UniProt P50406); experiment: Displacement of [3H]LSD from human 5-HT6 receptor
[25] = target: T5, Alpha-2A adrenergic receptor (Homo sapiens, UniProt P08913); experiment: Displacement of [3H]UK 14.304 from human adrenergic alpha2A receptor; settings: read-out: Ki(app)
T5 sequence (P08913 whole entry): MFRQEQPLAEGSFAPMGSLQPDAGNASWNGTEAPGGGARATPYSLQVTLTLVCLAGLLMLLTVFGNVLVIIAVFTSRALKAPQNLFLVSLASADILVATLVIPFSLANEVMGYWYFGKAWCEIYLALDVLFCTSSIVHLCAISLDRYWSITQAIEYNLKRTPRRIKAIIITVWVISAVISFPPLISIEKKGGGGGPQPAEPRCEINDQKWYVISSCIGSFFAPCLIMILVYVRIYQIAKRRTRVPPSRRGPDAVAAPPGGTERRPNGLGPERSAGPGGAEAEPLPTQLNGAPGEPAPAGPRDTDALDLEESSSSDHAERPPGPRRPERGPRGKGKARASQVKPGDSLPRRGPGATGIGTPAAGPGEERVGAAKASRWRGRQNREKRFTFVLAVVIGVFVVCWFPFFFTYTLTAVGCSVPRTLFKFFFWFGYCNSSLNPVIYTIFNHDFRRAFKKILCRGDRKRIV

Rattus norvegicus [26] = experiment: Decrease in 5-HIAA level in Sprague-Dawley rat striatum at 2.4 umol/kg, sc by HPLC analysis relative to saline-treated control; type: functional; set-up: scale not given: the % may be the effect or the level left
Rattus norvegicus [27] = experiment: Increase in DOPAC level in Sprague-Dawley rat striatum at 2.4 umol/kg, sc by HPLC analysis relative to saline-treated control; type: functional
Rattus norvegicus [28] = experiment: Reduction in spontaneous locomotor activity in Sprague-Dawley rat at 2.4 umol/kg, sc measured after 15 to 60 mins relative to saline-treated control; type: functional; set-up: scale not given: the % may be the effect or the level left
Rattus norvegicus [29] = experiment: Decrease in 5-HIAA level in Sprague-Dawley rat striatum at 37 umol/kg, sc by HPLC analysis relative to saline-treated control; type: functional; set-up: scale not given: the % may be the effect or the level left
Rattus norvegicus [30] = experiment: Increase in DOPAC level in Sprague-Dawley rat striatum at 37 umol/kg, sc by HPLC analysis relative to saline-treated control; type: functional
Rattus norvegicus [31] = experiment: Reduction in spontaneous locomotor activity in Sprague-Dawley rat at 37 umol/kg, sc measured after 15 to 60 mins relative to saline-treated control; type: functional; set-up: scale not given: the % may be the effect or the level left

T3 sequence (P14416 whole entry): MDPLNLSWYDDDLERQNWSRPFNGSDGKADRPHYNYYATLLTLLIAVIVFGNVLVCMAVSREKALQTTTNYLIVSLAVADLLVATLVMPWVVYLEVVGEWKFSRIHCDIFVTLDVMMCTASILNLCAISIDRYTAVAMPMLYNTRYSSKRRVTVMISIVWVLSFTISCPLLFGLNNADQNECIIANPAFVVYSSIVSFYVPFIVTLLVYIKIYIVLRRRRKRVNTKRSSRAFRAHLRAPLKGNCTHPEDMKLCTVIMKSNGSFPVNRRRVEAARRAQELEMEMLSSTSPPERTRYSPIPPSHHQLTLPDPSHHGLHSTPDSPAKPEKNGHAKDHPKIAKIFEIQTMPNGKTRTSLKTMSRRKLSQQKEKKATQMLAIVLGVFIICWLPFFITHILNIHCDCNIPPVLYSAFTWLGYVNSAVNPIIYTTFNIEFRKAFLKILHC
Chain of 5-hydroxytryptamine receptor 2A (P28223 whole entry): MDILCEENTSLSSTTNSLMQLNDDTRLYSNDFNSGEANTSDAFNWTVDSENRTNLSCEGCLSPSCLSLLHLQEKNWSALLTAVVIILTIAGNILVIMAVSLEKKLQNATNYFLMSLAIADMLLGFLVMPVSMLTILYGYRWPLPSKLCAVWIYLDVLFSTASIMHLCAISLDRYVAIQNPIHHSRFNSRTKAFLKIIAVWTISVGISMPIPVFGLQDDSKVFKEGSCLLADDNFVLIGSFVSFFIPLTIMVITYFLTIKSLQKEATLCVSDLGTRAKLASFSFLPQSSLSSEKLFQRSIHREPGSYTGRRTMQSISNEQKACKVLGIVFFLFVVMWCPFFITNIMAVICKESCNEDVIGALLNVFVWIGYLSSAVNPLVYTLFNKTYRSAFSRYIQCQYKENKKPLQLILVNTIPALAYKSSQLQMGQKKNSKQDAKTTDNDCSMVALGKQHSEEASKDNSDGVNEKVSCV
Chain of 5-hydroxytryptamine receptor 6 (P50406 whole entry): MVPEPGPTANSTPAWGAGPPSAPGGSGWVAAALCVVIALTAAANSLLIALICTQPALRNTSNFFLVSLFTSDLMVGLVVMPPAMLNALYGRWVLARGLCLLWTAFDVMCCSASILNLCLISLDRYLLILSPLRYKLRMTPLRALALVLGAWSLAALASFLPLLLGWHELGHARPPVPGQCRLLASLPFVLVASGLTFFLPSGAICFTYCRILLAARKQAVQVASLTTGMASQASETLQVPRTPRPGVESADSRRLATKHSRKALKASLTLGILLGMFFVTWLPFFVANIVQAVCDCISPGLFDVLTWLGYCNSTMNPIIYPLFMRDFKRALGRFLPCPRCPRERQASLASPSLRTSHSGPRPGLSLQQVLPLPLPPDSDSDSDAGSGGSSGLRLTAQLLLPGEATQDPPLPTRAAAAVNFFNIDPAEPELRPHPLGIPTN
Chain of Sodium-dependent dopamine transporter (Homo sapiens) (Q01959 whole entry): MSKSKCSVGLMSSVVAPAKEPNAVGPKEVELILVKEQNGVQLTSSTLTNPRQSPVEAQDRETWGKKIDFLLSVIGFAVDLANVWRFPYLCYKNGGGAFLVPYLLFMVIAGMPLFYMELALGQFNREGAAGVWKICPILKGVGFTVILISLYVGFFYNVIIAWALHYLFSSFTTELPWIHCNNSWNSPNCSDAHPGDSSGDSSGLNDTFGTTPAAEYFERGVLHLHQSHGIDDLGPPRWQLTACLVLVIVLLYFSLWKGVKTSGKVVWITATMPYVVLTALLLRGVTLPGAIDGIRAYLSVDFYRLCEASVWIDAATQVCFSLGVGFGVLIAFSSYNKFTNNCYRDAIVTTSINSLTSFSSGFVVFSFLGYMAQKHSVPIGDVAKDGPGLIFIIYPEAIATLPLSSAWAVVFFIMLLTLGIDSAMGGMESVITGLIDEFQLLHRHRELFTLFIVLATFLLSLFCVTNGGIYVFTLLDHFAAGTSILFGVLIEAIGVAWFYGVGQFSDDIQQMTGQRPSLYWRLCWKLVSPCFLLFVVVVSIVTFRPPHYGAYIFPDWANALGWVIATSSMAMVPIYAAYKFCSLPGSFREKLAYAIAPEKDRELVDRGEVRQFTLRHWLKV
Chain of Sodium-dependent serotonin transporter (P31645 whole entry): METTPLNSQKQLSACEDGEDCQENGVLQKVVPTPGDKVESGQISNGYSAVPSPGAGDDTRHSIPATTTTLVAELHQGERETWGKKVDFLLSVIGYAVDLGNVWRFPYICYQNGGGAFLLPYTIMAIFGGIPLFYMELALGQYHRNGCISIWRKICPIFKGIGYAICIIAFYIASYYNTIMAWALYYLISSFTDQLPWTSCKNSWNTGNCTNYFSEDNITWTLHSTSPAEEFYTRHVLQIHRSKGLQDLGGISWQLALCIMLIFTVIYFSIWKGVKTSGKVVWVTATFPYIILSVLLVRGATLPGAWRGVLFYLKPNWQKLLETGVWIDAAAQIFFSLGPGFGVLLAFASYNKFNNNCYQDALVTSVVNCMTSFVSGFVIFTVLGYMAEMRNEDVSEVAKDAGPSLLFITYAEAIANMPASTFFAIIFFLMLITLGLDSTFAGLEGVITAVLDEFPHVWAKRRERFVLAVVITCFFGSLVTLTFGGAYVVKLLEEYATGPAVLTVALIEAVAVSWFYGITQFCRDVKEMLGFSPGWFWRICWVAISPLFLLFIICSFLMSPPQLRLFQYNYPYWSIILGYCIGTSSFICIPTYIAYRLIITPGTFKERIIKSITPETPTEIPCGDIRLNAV
Chain of D(3) dopamine receptor (P35462 whole entry): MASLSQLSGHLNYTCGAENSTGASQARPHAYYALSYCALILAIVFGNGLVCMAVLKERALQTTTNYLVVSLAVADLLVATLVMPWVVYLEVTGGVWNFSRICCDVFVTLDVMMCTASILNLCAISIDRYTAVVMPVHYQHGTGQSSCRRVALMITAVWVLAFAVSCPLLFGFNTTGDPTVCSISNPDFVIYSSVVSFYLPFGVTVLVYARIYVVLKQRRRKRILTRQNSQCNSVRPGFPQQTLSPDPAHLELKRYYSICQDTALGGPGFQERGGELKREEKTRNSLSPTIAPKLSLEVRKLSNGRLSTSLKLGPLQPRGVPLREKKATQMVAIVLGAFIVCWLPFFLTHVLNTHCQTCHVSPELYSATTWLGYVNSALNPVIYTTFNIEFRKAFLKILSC

Compound: O=c1[nH]c2ccccc2n1C1CCN(CCCC(c2ccc(F)cc2)c2ccc(F)cc2)CC1 [PIMOZIDE]
- Activity (Rattus norvegicus [1]): 101%
- Activity (Rattus norvegicus [2]): 416%
- Activity (Rattus norvegicus [3]): 7.3%
- ED50 (Rattus norvegicus [4]): 1.6 µmol/kg

Compound: CN(C)CCCC1(c2ccc(F)cc2)OCc2cc(C#N)ccc21 (configuration not stated) [CITALOPRAM]
- Activity (Rattus norvegicus [5]): 69%
- Activity (Rattus norvegicus [6]): 101%
- Activity (Rattus norvegicus [7]): 50%
- ED50 (Rattus norvegicus [4]): inactive

Compound: O=C1Cc2cc(CCN3CCN(c4nsc5ccccc45)CC3)c(Cl)cc2N1 [ZIPRASIDONE]
- Activity (Rattus norvegicus [8]): 98%
- Activity (Rattus norvegicus [9]): 311%
- Activity (Rattus norvegicus [10]): 13%
- ED50 (Rattus norvegicus [4]): 1.2 µmol/kg

Compound: CCCN1CCC(n2c(=O)[nH]c3cc(Cl)ccc32)CC1
- Ki [11]: 21.6 µM
- Ki [12]: 5.71 µM
- Activity (Rattus norvegicus [13]): 54%
- Activity (Rattus norvegicus [14]): 101%
- Activity (Rattus norvegicus [15]): 334%
- ED50 (Rattus norvegicus [4]): 7 µmol/kg
- IC50 [16]: > 580 µM
- Ratio Ki(app) (Homo sapiens): 0.8
- Ki [17]: 3.51 µM
- Ki (D(2) dopamine receptor [18]): 0.456 µM
- Ki (D(2) dopamine receptor [19]): 0.371 µM
- inhibition (INH) (Rattus norvegicus [20]): 42%
- inhibition (INH) (Rattus norvegicus [21]): 4%
- Ki (D(3) dopamine receptor): 2.52 µM
- inhibition [22]: 15%
- inhibition [23]: 17%
- IC50 [24]: > 580 µM
- Ki [25]: 17.2 µM

Compound: Cc1nc2n(c(=O)c1CCN1CCC(c3noc4cc(F)ccc34)CC1)CCCC2 [RISPERIDONE]
- Activity (Rattus norvegicus [26]): 115%
- Activity (Rattus norvegicus [27]): 347%
- Activity (Rattus norvegicus [28]): 11%
- ED50 (Rattus norvegicus [4]): 0.5 µmol/kg

Compound: O=C(NCCN1CCOCC1)c1ccc(Cl)cc1 [MOCLOBEMIDE]
- Activity (Rattus norvegicus [29]): 81%
- Activity (Rattus norvegicus [30]): 18%
- Activity (Rattus norvegicus [31]): 164%
